Data published in article PMC12566046, “Arylpiperazinyl-Benzocycloheptapyrrole-Carboxamides Endowed with Dual Anticancer and Antiviral Activities” (Molecules, 2025).

Assays:
Assay in all cases: NCI-60 single-dose assay
Format in all cases: cell-based, human
[1] = tested on: SK-MEL-28 (melanoma cell line); conditions: Homo sapiens, SK-MEL-28, read-out: growth inhibition (GI%) and cytotoxicity (negative values)
Outline: (§1)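 Single-dose cytotoxicity test run in the NCI-60 panel of human cancer cell lines. Threshold inhibition criteria across a minimum number of lines decided progression to five-dose testing.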

[2] = tested on: EKVX (non-small cell lung cancer cell line); conditions: Homo sapiens, read-out: growth inhibition (GI%) and cytotoxicity (negative values)
Outline: as §1

[3] = tested on: RXF 393 (renal cancer cell line); conditions: Homo sapiens, RXF 393, read-out: growth inhibition (GI%) and cytotoxicity (negative values)
Outline: as §1

[4] = tested on: NCI-H23 (non-small cell lung cancer cell line); conditions: Homo sapiens, NCI-H23, read-out: growth inhibition (GI%) and cytotoxicity (negative values)
Outline: as §1

[5] = tested on: MDA-MB-231/ATCC (breast cancer cell line); conditions: Homo sapiens, MDA-MB-231, read-out: growth inhibition (GI%) and cytotoxicity (negative values)
Outline: as §1

[6] = tested on: MDA-MB-435 (melanoma cell line); conditions: Homo sapiens, MDA-MB-435, read-out: growth inhibition (GI%) and cytotoxicity (negative values)
Outline: as §1

[7] = tested on: MCF-7 (breast cancer cell line); conditions: Homo sapiens, MCF7, read-out: growth inhibition (GI%) and cytotoxicity (negative values), MCF-7, 10^−5 M
Outline: as §1

[8] = tested on: CCRF-CEM (leukemia cell line); conditions: Homo sapiens, read-out: growth inhibition (GI%) and cytotoxicity (negative values)
Outline: as §1

[9] = tested on: T-47D (breast cancer cell line); conditions: Homo sapiens, T47D, read-out: growth inhibition (GI%) and cytotoxicity (negative values)
Outline: as §1

[10] = tested on: SK-MEL-5 (melanoma cell line); conditions: human
Outline: as §1

[11] = tested on: MOLT-4 (leukemia cell line); conditions: Homo sapiens, MOLT-4, read-out: growth inhibition (GI%) and cytotoxicity (negative values)
Outline: as §1

[12] = tested on: UACC-257 (melanoma cell line); conditions: Homo sapiens, UACC-257, read-out: growth inhibition (GI%) and cytotoxicity (negative values)
Outline: as §1

[13] = tested on: SK-MEL-2 (melanoma cell line); conditions: Homo sapiens, SK-MEL-2, read-out: growth inhibition (GI%) and cytotoxicity (negative values)
Outline: as §1

[14] = tested on: SN12C (renal cancer cell line); conditions: Homo sapiens, read-out: growth inhibition (GI%) and cytotoxicity (negative values)
Outline: as §1

[15] = tested on: HCT-116 (colon cancer cell line); conditions: Homo sapiens, HCT-116, read-out: growth inhibition (GI%) and cytotoxicity (negative values)
Outline: as §1

[16] = tested on: LOX IMVI (melanoma cell line); conditions: Homo sapiens, LOX IMVI, read-out: growth inhibition (GI%) and cytotoxicity (negative values)
Outline: as §1

[17] = tested on: BT-549 (breast cancer cell line); conditions: Homo sapiens, BT-549, read-out: growth inhibition (GI%) and cytotoxicity (negative values)
Outline: as §1

[18] = tested on: SR (leukemia cell line); conditions: for inhibition at 10 µM: Homo sapiens, read-out: growth inhibition (GI%) and cytotoxicity (negative values)
Outline: as §1

[19] = tested on: UO-31 (renal cancer cell line); conditions: Homo sapiens, UO-31, read-out: growth inhibition (GI%) and cytotoxicity (negative values)
Outline: as §1

[20] = tested on: HT29 (colon cancer cell line); conditions: for inhibition at 10 µM: Homo sapiens, HT-29, read-out: growth inhibition (GI%) and cytotoxicity (negative values)
Outline: as §1

With `CCOc1ccccc1N1CCN(CCNC(=O)c2c(Cl)[nH]c3c2CCCc2ccccc2-3)CC1` [Compound 17] the inhibition at 10 µM [1] was 71.5%, the inhibition at 10 µM [2] was 87.5% and the inhibition at 10 µM [3] was 62.1%. For the same compound, the inhibition at 10 µM [4] was under 60%, the inhibition at 10 µM [5] was under 60% and the inhibition at 10 µM [6] was 69.3%. It also gave an inhibition at 10 µM [7] of 82.2%, an inhibition at 10 µM [8] of 61.6% and an inhibition at 10 µM [9] of 77.6%. For the same compound, the “growth inhibition (GI%) and cytotoxicity (negative values)” value (from here on “growth inhibition (GI%) and cytotoxicity”) [10] was −88.73%, the inhibition at 10 µM [11] was 95.5% and the inhibition at 10 µM [12] was 72%. It also gave an inhibition at 10 µM [13] of under 60%, an inhibition at 10 µM [14] of 60.7% and an inhibition at 10 µM [15] of 88.9%. The inhibition at 10 µM [16] was 74.3%, the inhibition at 10 µM [17] was 80.7% and the “growth inhibition (GI%) and cytotoxicity” value ([18]; human) was −5.19%. For the same compound, the inhibition at 10 µM [19] was 69.3% and the inhibition at 10 µM [20] was 81.5%.

In the case of `O=C(NCCN1CCN(c2ccccc2)CC1)c1c(Cl)[nH]c2c1CCCc1ccccc1-2` [Compound 12, 2-Chloro-N-(2-(4-phenylpiperazin-1-yl)ethyl)-1,4,5,6-tetrahydrobenzo[6,7]cyclohepta[1,2-b]pyrrole-3-carboxamide], the inhibition at 10 µM [1] is reported as under 60%, the inhibition at 10 µM [2] is reported as 72.3% and the inhibition at 10 µM [6] is reported as under 60%. For the same compound, the inhibition at 10 µM [7] was 60.9%, the inhibition at 10 µM [8] was under 60% and the “growth inhibition (GI%) and cytotoxicity” value [10] was −7.83%. For the same compound, the inhibition at 10 µM [11] was under 60%, the inhibition at 10 µM [12] was under 60% and the inhibition at 10 µM [13] was under 60%. For the same compound, the inhibition at 10 µM [15] was 65.8%, the inhibition at 10 µM [16] was under 60% and the inhibition at 10 µM [18] was 78.7%. For the same compound, the inhibition at 10 µM [20] was 65.5%.

Work on `COc1ccccc1N1CCN(CCNC(=O)c2[nH]c3c(c2Cl)CCCc2ccccc2-3)CC1` [Compound 5] yielded an inhibition at 10 µM [1] of under 60%, an inhibition at 10 µM [2] of 94.2% and an inhibition at 10 µM [3] of 89.4%. The inhibition at 10 µM [4] was 62.2%, the inhibition at 10 µM [6] was 61.8% and the inhibition at 10 µM [8] was 71.6%. The “growth inhibition (GI%) and cytotoxicity” value [10] was −62.59%, the inhibition at 10 µM [11] was 93% and the inhibition at 10 µM [12] was under 60%. It also gave an inhibition at 10 µM [13] of under 60%, an inhibition at 10 µM [14] of 71.8% and an inhibition at 10 µM [15] of 94.6%. For the same compound, the inhibition at 10 µM [16] was 82.8%, the inhibition at 10 µM [18] was 90.1% and the inhibition at 10 µM [19] was 70%. The “growth inhibition (GI%) and cytotoxicity” value ([20]; human) was −17.44%.

Work on `O=C(NCCN1CCN(c2ccccc2Cl)CC1)c1c(Cl)[nH]c2c1CCCc1ccccc1-2` [Compound 14] yielded an inhibition at 10 µM [1] of under 60%, an inhibition at 10 µM [2] of 72.7% and an inhibition at 10 µM [5] of under 60%. For the same compound, the inhibition at 10 µM [6] was under 60%, the inhibition at 10 µM [7] was under 60% and the inhibition at 10 µM [8] was under 60%. The “growth inhibition (GI%) and cytotoxicity” value [10] was −3.84%, the inhibition at 10 µM [11] was under 60% and the inhibition at 10 µM [12] was under 60%. The inhibition at 10 µM [13] was under 60%, the inhibition at 10 µM [15] was 66.5% and the inhibition at 10 µM [16] was under 60%. The inhibition at 10 µM [17] was under 60%, the inhibition at 10 µM [18] was under 60% and the inhibition at 10 µM [19] was 63.6%. The inhibition at 10 µM [20] was under 60%.

Compound `COc1ccccc1N1CCN(CCNC(=O)c2c(Cl)[nH]c3c2CCCc2ccccc2-3)CC1` [Compound 15] has an inhibition at 10 µM [1] of under 60%, an inhibition at 10 µM [2] of 81.7% and an inhibition at 10 µM [3] of under 60%. The inhibition at 10 µM [4] was under 60%, the inhibition at 10 µM [5] was under 60% and the inhibition at 10 µM [6] was under 60%. The inhibition at 10 µM [7] was 73%, the inhibition at 10 µM [8] was under 60% and the “growth inhibition (GI%) and cytotoxicity” value [10] was −75.22%. It also gave an inhibition at 10 µM [11] of 76.5%, an inhibition at 10 µM [12] of 67% and an inhibition at 10 µM [13] of under 60%. The inhibition at 10 µM [14] was under 60%, the inhibition at 10 µM [15] was 65.2% and the inhibition at 10 µM [16] was 60.6%. It also gave an inhibition at 10 µM [17] of 66.5%, an inhibition at 10 µM [18] of 95.5% and an inhibition at 10 µM [19] of 63.6%. For the same compound, the inhibition at 10 µM [20] was 79.4%.

With `O=C(NCCN1CCN(c2ccc(Cl)cc2)CC1)c1c(Cl)[nH]c2c1CCCc1ccccc1-2` [Compound 13] the inhibition at 10 µM [1] was under 60%, the inhibition at 10 µM [5] was under 60% and the inhibition at 10 µM [6] was under 60%. The inhibition at 10 µM [7] was under 60%, the inhibition at 10 µM [8] was under 60% and the “growth inhibition (GI%) and cytotoxicity” value [10] was −21.64%. The inhibition at 10 µM [11] was 61.7%, the inhibition at 10 µM [12] was under 60% and the inhibition at 10 µM [13] was under 60%. It also gave an inhibition at 10 µM [15] of under 60%, an inhibition at 10 µM [16] of under 60% and an inhibition at 10 µM [17] of under 60%. For the same compound, the inhibition at 10 µM [18] was 70.7% and the inhibition at 10 µM [20] was 69.2%.

In the case of `N#Cc1ccccc1N1CCN(CCNC(=O)c2c(Cl)[nH]c3c2CCCc2ccccc2-3)CC1` [Compound 18, 2-Chloro-N-(2-(4-(2-cyanophenyl)piperazin-1-yl)ethyl)-1,4,5,6-tetrahydrobenzo[6,7]cyclohepta[1,2-b]pyrrole-3-carboxamide], the inhibition at 10 µM [1] is reported as under 60%, the inhibition at 10 µM [2] is reported as 92.8% and the inhibition at 10 µM [3] is reported as under 60%. The inhibition at 10 µM [4] was under 60%, the inhibition at 10 µM [5] was under 60% and the inhibition at 10 µM [6] was 64.5%. It also gave an inhibition at 10 µM [7] of 78.5%, an inhibition at 10 µM [8] of under 60% and an inhibition at 10 µM [9] of 71.8%. For the same compound, the “growth inhibition (GI%) and cytotoxicity” value [10] was −67.02%, the inhibition at 10 µM [11] was 81.8% and the inhibition at 10 µM [12] was under 60%. For the same compound, the inhibition at 10 µM [13] was under 60%, the inhibition at 10 µM [14] was under 60% and the inhibition at 10 µM [15] was 70.1%. It also gave an inhibition at 10 µM [16] of under 60%, an inhibition at 10 µM [17] of 78.3% and an inhibition at 10 µM [18] of 74.2%. The inhibition at 10 µM [19] was 67% and the inhibition at 10 µM [20] was 64.2%.
